Data on 16 compounds can be found in patent US20040023892A1, “Pharmaceutical composition based on a non-steroid anti-inflammatory agent” (priority 2002, published 2004).

Data set [1] has as its system inflammatory swelling of paw of mice after introduction of carragenin. As to the kind of experiment: Inflammatory swelling of paw of mice after introduction of carragenin. Type of data set: in vivo. As to conditions: dose mg/kg; for Increase of Mass of Limb / Suppression of Swelling, % to Control: preparation alone, into stomach once a day 5 days, 3.5 hours after carragenin; for swelling of paw of mice after introduction of carragenine: Table 4, Control: NAIA alone; for swelling of paw of mice after introduction of carragenin: the values are: increase of paw mass. The method, then: Tests were performed on breedless white mice-males with mass 22-24 g. The investigated preparations were introduced to animals through a probe into stomach once a day during five days in form of suspension on 1% starch mucous or aqueous solution.
In one hour after the last introduction of preparations, mice were injected with 0.05 ml of 1% of solution of carragenin in isotonic solution of sodium chloride, under aneurism of right rear paw. After 3.5 hours, on a peak of inflammation, they were killed by dislocation of a neck area of spine. Swollen and healthy paws were compared, and a degree of suppression of swelling was determined in test groups when compared with a control group in accordance with the formula:
Increase of mass of paw in control-increase of mass of paw in test ______ 100 increase of mass of paw in control.
Tests were performed on breedless white mice-males with mass 22-26 g.

Data set [2] deals with breedless mice-male. As to the kind of experiment: Acute toxicity of ASA (LD50) with carbohydrate or sorbent. It is filed as in vivo. As to conditions: relative to LD50 of ASA alone. The method, then: Tests were conducted on breedless mice-male with mass 22-26 g. Acute toxicity of ASA was evaluated in accordance with the value LD50 (dose from which 50% of animals perish) of composition containing ACA plus carbohydrate or sorbent with ratio 4:1 when compared with LD50 ASA. Preparations were introduced one time intostomach in form of aqueous suspension with doses 350-3000 mg/kg to groups of six mice. Observations were conducted during 14 days. As a substance which has absorbing properties there were used activated carbon, white clay (caolin), aluminum hydroxide, magnium tricilicate, hydroxylapatite, microcrystaalline cellulose (MCC). As carbohydrates there were used monosaccarides-glucose and fructose, disaccaride-saccarose and lactose, and polysaccaride-potato starch. Results of experiments were processed in accordance with the method of Lichfield-Wilkoxon (Belensky, M. L. “Elements of quantitative evaluation of pharmacological effect,” second edition, redone and added, L, Medgiz, 1963, 152 p).
LD50 composition were counted on ASA (tables 7, 8).

Data set [3] relates to ambulatory patients. Put plainly: Clinical investigation of side effects of NAIA combinations with carbohydrates or sorbents.
Data set [4] deals with ambulatory patients. As to conditions: human, in vivo.
The mark [5] stands for this setting: 0.25 g with succinate of ammonium 0.1 g and activated carbon (0.35 g), two times a day 8 weeks.

Marks after values point to notes of the source that are not given here.

For `N.N.O=C(O)CCC(=O)O` [S-NH4, succinate of ammonium], in data set [1] (n = 10), the “Increase of Mass of Limb” value was found to be 63.5 ± 6.1 mg and the “Suppression of Swelling, % to Control” value is “+5.7 % to Control”.

For the compound `COc1ccc2cc([C@H](C)C(=O)O)ccc2c1` [NP, naproxen], the “swelling of paw of mice after introduction of carragenine” value (shortened to “swelling of paw … of carragenine”) in data set [1] (N = 10) is reported as 28.9*.

Turning to `CC(=O)Oc1ccccc1C(=O)O` [ASA, acetyl salicylic acid], in data set [2], the “Increase of Toxicity In” value worked out at 0. Also, in data set [3] (setting [5]), the “better taking of mixture ASA and ammonium succinate” value is recorded as “Four from five”; the dyspeptic phenomena result was “all 5 exhibited dyspeptic phenomena to a lesser degree”. The “swelling of paw … of carragenine” value in data set [1] (N = 10) is on record as 41.3*.

Turning to Vitamin E [Vit E], in data set [1] (n = 10), the “Increase of Mass of Limb” value stood at 58.7 mg and the “Suppression of Swelling, % to Control” value is listed as −2.3 % to Control.

With `O=C([O-])Cc1ccccc1Nc1c(Cl)cccc1Cl.[Na+]` [ortofen], in data set [4], the “dispeptic phenomenon, headaches, dizziness” value is given as “less exhibited” and the taking of medication entry is on record as “taking medication better”.

As to `CN1C(C(=O)Nc2ccccn2)=C(O)c2ccccc2S1(=O)=O` [PK, piroxikam], the swelling of paw of mice after introduction of carragenin in data set [1] (Table 2, column Control: NAIA alone, N = 10) was determined as 28.8 mg; in data set [1] (Table 3, column Control: NAIA alone, n = 10) it was 28.8 mg; in data set [1] (Table 5, column Control: NAIA alone, N = 10), 28.8 mg. The “swelling of paw … of carragenine” value in data set [1] (N = 10) was 28.8*. Also, the “Increase of Mass of Limb” value in data set [1] (n = 10) is on record as 28.8 ± 4.9 mg. Moreover, the “Suppression of Swelling, % to Control” value in data set [1] (n = 10) is given as −52.0 % to Control.

As for `CCCCC1C(=O)N(c2ccccc2)N(c2ccccc2)C1=O` [BN, butadion], the “swelling of paw … of carragenine” value in data set [1] (N = 10) was 32.4*.

Turning to `O=C(O)CCCCC1CCSS1` (stereo not drawn) [Lipoic acid LA, lipoic acid], in data set [1] (n = 10), the “Increase of Mass of Limb” value was 62.3 mg and the “Suppression of Swelling, % to Control” value is “+3.7 % to Control”.

`NCC(=O)O` [GLy, glycin]: in data set [1] (n = 10), the “Increase of Mass of Limb” value is 63.0 ± 5.5 mg and the “Suppression of Swelling, % to Control” value is “+4.8 % to Control”.

On to `COc1ccc2c(c1)c(CC(=O)O)c(C)n2C(=O)c1ccc(Cl)cc1` [IM, indometatsin], for which, in data set [3] (0.05 g with 0.25 g karsil, group which did not receive sorbent), the “patients needing antyhistamine substances for reduction of allergenic phenomena” value is on record as “one more patient needed antyhistamine substances”. Further, the “patients forced to stop taking preparation because of strong headaches in epigastric, vomiting” value in data set [3] (0.05 g with 0.25 g karsil, group which did not receive sorbent, after the third week) is 1 patient. The “side effects of indometnacyne, in particular dispeptic phenomena, dizziness, headaches” value in data set [3] (0.05 g with 0.25 g karsil, together with microcrystalline cellulose 1:2, 5 weeks, versus without sorbent) is reported as “to a lesser degree”. Moreover, the “swelling of paw … of carragenine” value in data set [1] (N = 10) is given as 19.0*.

For `O=C(O)Cc1ccccc1Nc1c(Cl)cccc1Cl` [VL, voltaren], in data set [1] (N = 10), the “swelling of paw … of carragenine” value is recorded as 24.3*.

Regarding Vitamin B6 [Vit B6], in data set [1] (n = 10), the “Increase of Mass of Limb” value came to 60.5 mg and the “Suppression of Swelling, % to Control” value is recorded as “+0.7 % to Control”.

For `O=c1c(O)c(-c2ccc(O)c(O)c2)oc2cc(O)cc(O)c12` [KV, kvertsetin], in data set [1] (n = 10), the “Increase of Mass of Limb” value is 58.7 ± 3.6 mg and the “Suppression of Swelling, % to Control” value is listed as −2.3 % to Control.

Take `O=C(O)/C=C/C(=O)O` [FUM, fumaric]: in data set [1] (n = 10), the “Increase of Mass of Limb” value is listed as 59.3 ± 5.5 mg and the “Suppression of Swelling, % to Control” value is −1.3 % to Control.

Consider `O=C(O)c1cccnc1Nc1cccc(C(F)(F)F)c1` [NA, niflumic acid], for which the “swelling of paw … of carragenine” value in data set [1] (N = 10) is listed as 31.1*.

Turning to `N[C@@H](CS)C(=O)O` [TIS, tsistein], in data set [1] (n = 10), the “Increase of Mass of Limb” value came to 61.5 ± 6.4 mg and the “Suppression of Swelling, % to Control” value was “+2.3 % to Control”.
